Data published in patent US8859580B2 (Boehringer Ingelheim International GmbH, priority 2007, dated 2014).

The molecules below were run against T1, 11β-HSD1 (Homo sapiens, UniProt P28845) (assay: In vitro inhibition of 11β-HSD1, HTRF detection of cortisol generated from cortisone by human liver microsomes). Conditions: 11β-HSD IC50 (nM), 1 hour at 37° C., pH 6.0, NADPH 200 μM, cortisone 80 nM, inhibition relative to carbenoxolone signal.
T1 construct: detecting cortisol generated from cortisterone by human liver microsomes; from tissue; host or cells: human liver microsomes
Assay type: biochemical
Procedure, shortened: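 Cortisol formed from cortisone by human liver microsomes quantified by competitive HTRF immunoassay (XL665-cortisol, Eu-cryptate anti-cortisol antibody), 2 h detection, Em665/Em615 ratio converted via cortisol calibration curve. Percent inhibition relative to carbenoxolone signal; IC50 from curves.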

T1 sequence (P28845 whole entry): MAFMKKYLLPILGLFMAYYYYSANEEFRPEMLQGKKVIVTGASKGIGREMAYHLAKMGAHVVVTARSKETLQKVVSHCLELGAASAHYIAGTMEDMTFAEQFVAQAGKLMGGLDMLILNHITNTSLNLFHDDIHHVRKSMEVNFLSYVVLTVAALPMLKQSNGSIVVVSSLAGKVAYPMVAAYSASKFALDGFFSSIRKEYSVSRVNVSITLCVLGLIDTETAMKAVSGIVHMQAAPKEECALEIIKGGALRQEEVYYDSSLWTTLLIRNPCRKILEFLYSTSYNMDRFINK

| Compound | IC50 |
| --- | --- |
| C[C@@H]1[C@H]2Cc3ccc(-c4ccncn4)cc3[C@]1(C)CCN2C(=O)c1ccc2nc[nH]c2c1 [Example 264, (3H-Benzoimidazol-5-yl)-[(2R,6R,11S)-6,11-dimethyl-8-pyrimidin-4-yl-1,2,5,6-tetrahydro-4H-2,6-methano-benzo[d]azocin-3-yl]-methanone] | 78 nM |
| CNC(=O)c1ccc2c(c1)[C@]1(C)CCN(C(=O)c3ccc4nc[nH]c4c3)[C@H](C2)[C@H]1C [Example 156, (2R,6R,11S)-3-(3H-Benzoimidazole-5-carbonyl)-6,11-dimethyl-1,2,3,4,5,6-hexahydro-2,6-methano-benzo[d]azocine-8 carboxylic acid methylamide] | 340 nM |
| C[C@H]1[C@@H]2Cc3ccc(O)cc3[C@@]1(C)CCN2C(=O)c1ccc2nc[nH]c2c1 [Example 53, (3H-Benzoimidazol-5-yl)-[(2S,6S,11R)-8-hydroxy-6,11-dimethyl-1,2,5,6-tetrahydro-4H-2,6-methano-benzo[d]azocin-3-yl]-methanone] | 321 nM |
| CNS(=O)(=O)c1ccc2c(c1)[C@]1(C)CCN(C(=O)c3ccc4nc[nH]c4c3)[C@H](C2)C1(C)C [Example 202, (2R,6S)-3-(3H-Benzoimidazole-5-carbonyl)-6,11,11-trimethyl-1,2,3,4,5,6-hexahydro-2,6-methano-benzo[d]azocine-8-sulfonic acid methylamide] | 66 nM |
| CC1(C)[C@H]2Cc3c(cccc3S(C)(=O)=O)[C@]1(C)CCN2C(=O)c1ccc2nc[nH]c2c1 [Example 234, (3H-Benzoimidazol-5-yl)-[(2R,6S)-10-methanesulfonyl-6,11,11-trimethyl-1,2,5,6-tetrahydro-4H-2,6-methano-benzo[d]azocin-3-yl)-methanone] | 3120 nM |
| CC1(C)[C@H]2Cc3c(O)cccc3[C@]1(C)CCN2C(=O)c1ccc(Cn2ccnc2)cc1 [Example 123, [(2R,6S)-10-Hydroxy-6,11,11-trimethyl-1,2,5,6-tetrahydro-4H-2,6-methano-benzo[d]azocin-3-yl]-(4-imidazol-1-ylmethyl-phenyl)-methanone] | 297 nM |
| Cc1[nH]c2ccccc2c1C(=O)N1CC[C@@]2(C)c3cccc(O)c3C[C@@H]1C2(C)C [Example 197, [(2R,6S)-10-Hydroxy-6,11,11-trimethyl-1,2,5,6-tetrahydro-4H-2,6-methano-benzo[d]azocin-3-yl]-(2-methyl-1H-indol-3-yl)-methanone] | 3830 nM |
| CC1(C)[C@H]2Cc3ccccc3[C@]1(C)CCN2C(=O)c1c(F)c(F)c(N)c(F)c1F [Example 281, (4-Amino-2,3,5,6-tetrafluoro-phenyl)-[(2R,6S)-6,11,11-trimethyl-1,2,5,6-tetrahydro-4H-2,6-methano-benzo[d]azocin-3-yl]-methanone] | 918 nM |
| Cn1cnc2cc3c(cc21)C[C@H]1N(C(=O)c2ccc4nc[nH]c4c2)CC[C@]3(C)C1(C)C [Example 240, (3H-Benzoimidazol-5-yl)-[(6R,10S)-5,6,7,8,9,10-hexahydro-3,10,12,12-tetramethyl-6,10-methano-imidazo[4,5-i][3]benzazocin-7-yl]-methanone] | 51 nM |
| CC1(C)[C@H]2Cc3cc4nc[nH]c4cc3[C@]1(C)CCN2C(=O)c1ccc2nc[nH]c2c1 [Example 239, (3H-Benzoimidazol-5-yl)-[(6R,10S)-5,6,7,8,9,10-hexahydro-10,12,12-trimethyl-6,10-methano-1H-imidazo[5,4-i][3]benzazocin-7-yl]-methanone] | 24 nM |
| CC12CCN(C(=O)c3ccc4ncsc4c3)C(Cc3ccc(O)cc31)C2 (stereo not shown) [Example 92, benzothiazol-6-yl-(8-hydroxy-6-methyl-1,2,5,6-tetrahydro-4H-2,6-methano-benzo[d]azocin-3-yl)-methanone] | 1110 nM |
| Cc1nccc(-c2ccc3c(c2)[C@]2(C)CCN(C(=O)c4ccc5nc[nH]c5c4)[C@H](C3)[C@H]2C)n1 [Example 262, (3H-Benzoimidazol-5-yl)-[(2R,6R,11S)-6,11-dimethyl-8-(2-methyl-pyrimidin-4-yl)-1,2,5,6-tetrahydro-4H-2,6-methano-benzo[d]azocin-3-yl]-methanone] | 73 nM |
| CCOC(=O)c1cccc2c1C[C@H]1N(C(=O)c3ccc4nc[nH]c4c3)CC[C@]2(C)C1(C)C [Example 95, (2R,6S)-3-(1H-Benzoimidazole-5-carbonyl)-6,11,11-trimethyl-1,2,3,4,5,6-hexahydro-2,6-methano-benzo[d]azocine-10-carboxylic acid ethyl ester] | 3840 nM |
| COc1ccc2c(c1)[C@]1(C)CCN(C(=O)c3ccccc3[N+](=O)[O-])[C@H](C2)[C@@H]1C [Example 108, [(2R,6R,11R)-8-Methoxy-6,11-dimethyl-1,2,5,6-tetrahydro-4H-2,6-methano-benzo[d]azocin-3-yl]-(2-nitro-phenyl)-methanone] | 140 nM |
| CC(O)(c1ccc2c(c1)[C@]1(C)CCN(C(=O)c3ccc4nc[nH]c4c3)[C@H](C2)C1(C)C)C(F)(F)F (stereo partly drawn) [Example 344, (3H-Benzoimidazol-5-yl)-[(2R,6S)-6,11,11-trimethyl-8-(2,2,2-trifluoro-1-hydroxy-1-methyl-ethyl)-1,2,5,6-tetrahydro-4H-2,6-methano-benzo[d]azocin-3-yl]-methanone] | 35 nM |
| CC12CCN(C(=O)c3ccc4nc[nH]c4c3)C(Cc3ccc(Cl)cc31)C2(C)C (stereo not shown) [Example 75, (3H-Benzoimidazol-5-yl)-(8-chloro-6,11,11-trimethyl-1,2,5,6-tetrahydro-4H-2,6-methano-benzo[d]azocin-3-yl)-methanone] | 395 nM |
| Cn1nnc2cc3c(cc21)C[C@H]1N(C(=O)c2ccc4nc[nH]c4c2)CC[C@]3(C)C1(C)C [Example 258, (3H-Benzoimidazol-5-yl)-[(6R,10S)-5,6,7,8,9,10-hexahydro-3,10,12,12-tetramethyl-6,10-methano-triazolo[4,5-i][3]benzazocin-7-yl]-methanone] | 33 nM |
| COC(=O)c1cc(Cl)cc(C(=O)N2CC[C@@]3(C)c4cccc(O)c4C[C@@H]2C3(C)C)c1 [Example 42, 3-Chloro-5-[(2R,6S)-10-hydroxy-6,11,11-trimethyl-1,2,5,6-tetrahydro-4H-2,6-methano-benzo[d]azocine-3-carbonyl]-benzoic acid methyl ester] | 4530 nM |
| CC(=O)NCc1ccc(C(=O)N2CC[C@@]3(C)c4cccc(O)c4C[C@@H]2C3(C)C)cc1 [Example 132, N-{4-[(2R,6S)-10-Hydroxy-6,11,11-trimethyl-1,2,5,6-tetrahydro-4H-2,6-methano-benzo[d]azocine-3-carbonyl]-benzyl}-acetamide] | 958 nM |
| COc1ccc2c(c1)[C@]1(C)CCN(C(=O)c3ccccc3C)[C@H](C2)[C@@H]1C [Example 109, [(2R,6R,11R)-8-Methoxy-6,11-dimethyl-1,2,5,6-tetrahydro-4H-2,6-methano-benzo[d]azocin-3-yl]-o-tolyl-methanone] | 1460 nM |
| Cc1occc1C(=O)N1CC[C@@]2(C)c3cccc(O)c3C[C@@H]1C2(C)C [Example 180, [(2R,6S)-10-Hydroxy-6,11,11-trimethyl-1,2,5,6-tetrahydro-4H-2,6-methano-benzo[d]azocin-3-yl]-(2-methyl-furan-3-yl)-methanone] | 1320 nM |

Same assay, conditions: 1 hour at 37° C., pH 6.0, NADPH 200 μM, cortisone 80 nM, inhibition relative to carbenoxolone signal, read-out: 11β-HSD IC50

| Compound | IC50 |
| --- | --- |
| CC12CCN(C(=O)c3ccc4nc[nH]c4c3)C(CCc3ccccc31)C2 (stereo not shown) [Example 98, (3H-Benzoimidazol-5-yl)-(1-methyl-11-aza-tricyclo[8.3.1.0*2,7*]tetradeca-2,4,6-trien-11-yl)-methanone] | 125 nM |
